PubChem BioAssay AID1845207 (Molecular Pharmacology Branch, DTP, NCI, 2023)

Tested on: NCI-H1876 tumor spheroid viability
Experiment: Anticancer human tumor NCI-H1876 cell line growth inhibition;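 note: spheroids exposed to compounds for seven days before the viability read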;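 for viability, T/C: percent of DMSO vehicle control viability so 100% = vehicle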
Settings: spheroids with HUVEC and MSC; for IC50: curve of first compound; for viability, T/C: stronger effect = lower value
Summary of the method: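 Single agents and combinations were tested on spheroids built from tumor cells plus HUVEC and hMSC, at half-log dilutions starting at or near clinical Cmax, else 10 microM; final DMSO 0.25% (v/v).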

[1] = second compound 1 µM, first compound 0.0316 µM
[2] = second compound 1 µM, first compound 0.1 µM
[3] = second compound 1 µM, first compound 0.316 µM
[4] = second compound 1 µM, first compound 1 µM
[5] = second compound 1 µM, first compound 3.16 µM
[6] = second compound 1 µM, first compound 10 µM
[7] = second compound 3.16 µM, first compound 0.0316 µM
[8] = second compound 3.16 µM, first compound 0.1 µM
[9] = second compound 3.16 µM, first compound 0.316 µM
[10] = second compound 3.16 µM, first compound 1 µM
[11] = second compound 3.16 µM, first compound 3.16 µM
[12] = second compound 3.16 µM, first compound 10 µM
[13] = second compound 10 µM, first compound 0.0316 µM
[14] = second compound 10 µM, first compound 0.1 µM
[15] = second compound 10 µM, first compound 0.316 µM
[16] = second compound 10 µM, first compound 1 µM
[17] = second compound 10 µM, first compound 3.16 µM
[18] = second compound 10 µM, first compound 10 µM
[19] = second compound 31.6 µM, first compound 0.0316 µM
[20] = second compound 31.6 µM, first compound 0.1 µM
[21] = second compound 31.6 µM, first compound 0.316 µM
[22] = second compound 31.6 µM, first compound 1 µM
[23] = second compound 31.6 µM, first compound 3.16 µM
[24] = second compound 31.6 µM, first compound 10 µM
[25] = second compound 100 µM, first compound 0.0316 µM
[26] = second compound 100 µM, first compound 0.1 µM
[27] = second compound 100 µM, first compound 0.316 µM
[28] = second compound 100 µM, first compound 1 µM
[29] = second compound 100 µM, first compound 3.16 µM
[30] = second compound 100 µM, first compound 10 µM

Row | Compound | IC50 (second compound 1 µM) | IC50 (second compound 3.16 µM) | IC50 (second compound 10 µM) | IC50 (second compound 31.6 µM) | IC50 (second compound 100 µM) | viability, T/C [1] | viability, T/C [2] | viability, T/C [3] | viability, T/C [4] | viability, T/C [5] | viability, T/C [6] | viability, T/C [7] | viability, T/C [8] | viability, T/C [9] | viability, T/C [10] | viability, T/C [11] | viability, T/C [12] | viability, T/C [13] | viability, T/C [14] | viability, T/C [15] | also measured
1 | CC1COCCN1c1cc(-c2ccnn2C)c2ccnc(-c3ccn[nH]3)c2n1 (stereo not given) + Cn1nnc2c(C(N)=O)ncn2c1=O | 55.4 nM | 54.5 nM | 59.8 nM | 33.6 nM | < 31.6 nM | 57% | 42.4% | 30.1% | 20.7% | 11.2% | 6.47% | 57.7% | 41.3% | 30.1% | 19.4% | 12.5% | 6.71% | 53% | 49.1% | 30.1% | viability, T/C [16]: 20%; viability, T/C [17]: 11%; viability, T/C [18]: 7.84%; viability, T/C [19]: 51.5%; viability, T/C [20]: 35.6%; viability, T/C [21]: 29.5%; viability, T/C [22]: 17.2%; viability, T/C [23]: 10.8%; viability, T/C [24]: 7.29%; viability, T/C [25]: 32.2%; viability, T/C [26]: 24%; viability, T/C [27]: 18.8%; viability, T/C [28]: 11.7%; viability, T/C [29]: 28.5%; viability, T/C [30]: 6.09%
2 | COc1cc(C)[nH]c(=O)c1CN1CCc2c(Cl)cc(C(OC)C3COC3)c(Cl)c2C1=O (stereo not given) + Cn1nnc2c(C(N)=O)ncn2c1=O | > 10000 nM | > 10000 nM | > 10000 nM | > 10000 nM | > 10000 nM | 112% | 108% | 109% | 90.8% | 92.7% | 70.4% | 117% | 117% | 110% | 102% | 89.9% | 75.4% | 108% | 109% | 107% | viability, T/C [16]: 100%; viability, T/C [17]: 95%; viability, T/C [18]: 79.1%; viability, T/C [19]: 108%; viability, T/C [20]: 107%; viability, T/C [21]: 107%; viability, T/C [22]: 102%; viability, T/C [23]: 86.5%; viability, T/C [24]: 71.3%; viability, T/C [25]: 92.2%; viability, T/C [26]: 91.4%; viability, T/C [27]: 81.2%; viability, T/C [28]: 81.4%; viability, T/C [29]: 81.7%; viability, T/C [30]: 72.3%
3 | Cc1cc(C)c(CNC(=O)c2cc(-c3ccc(CN4CCOCC4)cc3)cc3c2cnn3C2CCCC2)c(=O)[nH]1 + Cn1nnc2c(C(N)=O)ncn2c1=O | 713 nM | 873 nM | 546 nM | 750 nM | 201 nM | 93.8% | 79.2% | 60.2% | 44.8% | 29.3% | 9.14% | 85.7% | 78.6% | 64% | 49.8% | 27.2% | 12.2% | 88.7% | 58.5% | 61.8% | viability, T/C [16]: 46.8%; viability, T/C [17]: 26.6%; viability, T/C [18]: 13.3%; viability, T/C [19]: 53.8%; viability, T/C [20]: 74.6%; viability, T/C [21]: 59.3%; viability, T/C [22]: 44.7%; viability, T/C [23]: 26.3%; viability, T/C [24]: 10.7%; viability, T/C [25]: 58.8%; viability, T/C [26]: 52.3%; viability, T/C [27]: 47%; viability, T/C [28]: 39.8%; viability, T/C [29]: 25.2%; viability, T/C [30]: 8.6%
4 | [2H]c1nc(C)nc([2H])c1-c1cc(NC[C@@H](C)c2cccc3c(C(=O)NC)ccnc23)ncn1 + Cn1nnc2c(C(N)=O)ncn2c1=O | > 10000 nM | > 10000 nM | > 10000 nM | > 10000 nM | > 10000 nM | 98.1% | 98.7% | 101% | 101% | 86.8% | 67.6% | 106% | 104% | 95.4% | 106% | 88.8% | 77.2% | 104% | 103% | 106% | viability, T/C [16]: 101%; viability, T/C [17]: 89.3%; viability, T/C [18]: 71.5%; viability, T/C [19]: 91.8%; viability, T/C [20]: 55.8%; viability, T/C [21]: 91.7%; viability, T/C [22]: 95.5%; viability, T/C [23]: 89.2%; viability, T/C [24]: 50.1%; viability, T/C [25]: 69.5%; viability, T/C [26]: 76.9%; viability, T/C [27]: 70.4%; viability, T/C [28]: 66.2%; viability, T/C [29]: 65.1%; viability, T/C [30]: 58.3%
